Source: article PMC7377239, “Cardiovascular Effects of Polychlorinated Biphenyls and Their Major Metabolites” (Environmental Health Perspectives, 2020)
Where two headings read alike, the source gives them in different places.

Assays:
[1] = tested on: iCell endothelial cells (human iPSC-derived ECs); experiment: Tube formation (tubulogenesis) assay in iCell endothelial cells, 18 h; assay type: cell-based; details: for endo.tlps.18hr / endo.tta.18hr / endo.ttl.18hr / endo.mtl.18hr: 0.00 µM = 100.00
Outline: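 Tube formation was measured by calcein AM imaging after overnight compound exposure (37°C, 0.5% DMSO vehicle) of human iPSC-derived ECs, 7,500/well, on reduced-growth-factor Geltrex in starvation medium. Vehicle-normalized data fitted to four-parameter logistic; POD set at one vehicle SD; without response, 100 μM taken as NOAEL.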

HUVECs = experiment: Tube formation (tubulogenesis) assay in HUVECs, 18 h; assay type: cell-based, human; details: for huvec.tta.18hr / huvec.tlps.18hr / huvec.mtl.18hr / huvec.ttl.18hr: 0.00 µM = 100.00; for minimal effective concentration / activity at 0.01 µM / activity at 0.1 µM / activity at 1 µM / activity at 10 µM / activity at 100 µM: Homo sapiens, HUVEC, 18 h
Outline: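 HUVECs (passage 1–5) seeded on reduced-growth-factor basement membrane and exposed to compounds overnight at 37°C, 5% CO2, in 2× maintenance medium with 12.5 ng/mL VEGF; 0.5% DMSO vehicle. Calcein AM-stained tube networks imaged and analysed; vehicle-normalized readouts fit to four-parameter logistic, POD set at one SD of vehicle means.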

[2] = HUVECs tube formation, concentration 0.01 µM
[3] = HUVECs tube formation, concentration 0.10 µM
[4] = HUVECs tube formation, concentration 100.00 µM
[5] = HUVECs tube formation, concentration 1.00 µM
[6] = HUVECs tube formation, concentration 10.00 µM

## Clc1ccc(Cl)c(-c2c(Cl)ccc(Cl)c2Cl)c1Cl [(+)-PCB 136, 2,2′,3,3′,6,6′-hexachlorobiphenyl]
[1]; Homo sapiens, Endothelial cell, endothelial cells (endo), tube formation mtl, 18 hr, read-out: POD endo.mtl.18hr
  minimal effective concentration: 63.5 µM
[1]; Homo sapiens, Endothelial cell, iPSC-EC, 0.01 µM, 0.00 µM = 100.00, read-out: endo.mtl.18hr
  activity at 0.01 µM: 115%
[1]; Homo sapiens, Endothelial cell, iPSC-EC, 0.01 µM, 0.00 µM = 100.00, read-out: endo.tta.18hr
  activity at 0.01 µM: 133%
[1]; Homo sapiens, Endothelial cell, iPSC-EC, 0.01 µM, 0.00 µM = 100.00, read-out: endo.ttl.18hr
  activity at 0.01 µM: 135%
[1]; Homo sapiens, Endothelial cell, iPSC-EC, 0.10 µM, 0.00 µM = 100.00, read-out: endo.mtl.18hr
  activity at 0.1 µM: 113%
[1]; Homo sapiens, Endothelial cell, iPSC-EC, 0.10 µM, 0.00 µM = 100.00, read-out: endo.ttl.18hr
  activity at 0.1 µM: 132%
[1]; Homo sapiens, Endothelial cell, iPSC-EC, 1.00 µM, 0.00 µM = 100.00, read-out: endo.mtl.18hr
  activity at 1 µM: 111%
[1]; Homo sapiens, Endothelial cell, iPSC-EC, 1.00 µM, 0.00 µM = 100.00, read-out: endo.tta.18hr
  activity at 1 µM: 134%
[1]; Homo sapiens, Endothelial cell, iPSC-EC, 1.00 µM, 0.00 µM = 100.00, read-out: endo.ttl.18hr
  activity at 1 µM: 139%
[1]; Homo sapiens, Endothelial cell, iPSC-EC, 10.00 µM, 0.00 µM = 100.00, read-out: endo.mtl.18hr
  activity at 10 µM: 107%
[1]; Homo sapiens, Endothelial cell, iPSC-EC, 100.00 = highest concentration tested, read-out: endo.mtl.18hr POD
  minimal effective concentration: 63.5 µM
[1]; iPSC-EC, 0.01 µM
  endo.tlps.18hr: 101.49
[1]; iPSC-EC, 0.10 µM
  endo.tlps.18hr: 128.16
  endo.tta.18hr: 137.60
[1]; iPSC-EC, 1.00 µM
  endo.tlps.18hr: 103.43
[1]; iPSC-EC, 10.00 µM
  endo.tlps.18hr: 157.84
  endo.tta.18hr: 197.38
  endo.ttl.18hr: 177.54
[1]; iPSC-EC, 100.00 µM
  endo.mtl.18hr: 68.39
  endo.tlps.18hr: 43.04
  endo.tta.18hr: 78.91
  endo.ttl.18hr: 80.17
HUVECs; [2]
  huvec.tta.18hr: 108.86
HUVECs; [3]
  huvec.tlps.18hr: 71.77
HUVECs; [4]
  huvec.tta.18hr: 92.04
HUVECs; tube formation mtl, read-out: POD huvec.mtl.18hr
  minimal effective concentration: 13.4 µM
HUVECs; tube formation tta, read-out: POD huvec.tta.18hr
  minimal effective concentration: 100 µM
HUVECs; tube formation ttl, read-out: POD huvec.ttl.18hr
  minimal effective concentration: 100 µM
HUVECs; HUVECs tube formation, MAX 100.00, read-out: huvec.mtl.18hr POD
  minimal effective concentration: 13.4 µM
HUVECs; HUVECs tube formation, MAX 100.00, read-out: huvec.tta.18hr POD
  minimal effective concentration: 100 µM
HUVECs; HUVECs tube formation, MAX 100.00, read-out: huvec.ttl.18hr POD
  minimal effective concentration: 100 µM
HUVECs; HUVECs tube formation, concentration 0.01 µM, 0.00 µM = 100.00, read-out: huvec.mtl.18hr
  activity at 0.01 µM: 92.2%
HUVECs; HUVECs tube formation, concentration 0.01 µM, 0.00 µM = 100.00, read-out: huvec.tlps.18hr
  activity at 0.01 µM: 82.7%
HUVECs; HUVECs tube formation, concentration 0.01 µM, 0.00 µM = 100.00, read-out: huvec.ttl.18hr
  activity at 0.01 µM: 105%
HUVECs; HUVECs tube formation, concentration 0.10 µM, 0.00 µM = 100.00, read-out: huvec.mtl.18hr
  activity at 0.1 µM: 93.1%
HUVECs; HUVECs tube formation, concentration 0.10 µM, 0.00 µM = 100.00, read-out: huvec.tta.18hr
  activity at 0.1 µM: 107%
HUVECs; HUVECs tube formation, concentration 0.10 µM, 0.00 µM = 100.00, read-out: huvec.ttl.18hr
  activity at 0.1 µM: 105%
HUVECs; HUVECs tube formation, concentration 1.00 µM, 0.00 µM = 100.00, read-out: huvec.mtl.18hr
  activity at 1 µM: 96.3%
HUVECs; HUVECs tube formation, concentration 1.00 µM, 0.00 µM = 100.00, read-out: huvec.tlps.18hr
  activity at 1 µM: 98.7%
HUVECs; HUVECs tube formation, concentration 1.00 µM, 0.00 µM = 100.00, read-out: huvec.tta.18hr
  activity at 1 µM: 102%
HUVECs; HUVECs tube formation, concentration 1.00 µM, 0.00 µM = 100.00, read-out: huvec.ttl.18hr
  activity at 1 µM: 99.6%
HUVECs; HUVECs tube formation, concentration 10.00 µM, 0.00 µM = 100.00, read-out: huvec.mtl.18hr
  activity at 10 µM: 92.5%
HUVECs; HUVECs tube formation, concentration 10.00 µM, 0.00 µM = 100.00, read-out: huvec.tlps.18hr
  activity at 10 µM: 100%
HUVECs; HUVECs tube formation, concentration 10.00 µM, 0.00 µM = 100.00, read-out: huvec.tta.18hr
  activity at 10 µM: 112%
HUVECs; HUVECs tube formation, concentration 10.00 µM, 0.00 µM = 100.00, read-out: huvec.ttl.18hr
  activity at 10 µM: 104%
HUVECs; HUVECs tube formation, concentration 100.00 µM, 0.00 µM = 100.00, read-out: huvec.mtl.18hr
  activity at 100 µM: 64.5%
HUVECs; HUVECs tube formation, concentration 100.00 µM, 0.00 µM = 100.00, read-out: huvec.tlps.18hr
  activity at 100 µM: 73.3%
HUVECs; HUVECs tube formation, concentration 100.00 µM, 0.00 µM = 100.00, read-out: huvec.ttl.18hr
  activity at 100 µM: 83.9%

## Clc1ccc(Cl)c(-c2c(Cl)ccc(Cl)c2Cl)c1Cl [(-)-PCB 136, 2,2′,3,3′,6,6′-hexachlorobiphenyl]
[1]; iPSC-EC, 0.01 µM
  endo.mtl.18hr: 102.71
  endo.tlps.18hr: 139.80
  endo.tta.18hr: 138.00
  endo.ttl.18hr: 138.93
[1]; iPSC-EC, 0.10 µM
  endo.mtl.18hr: 112.13
  endo.tlps.18hr: 103.80
  endo.tta.18hr: 103.27
  endo.ttl.18hr: 116.27
[1]; iPSC-EC, 1.00 µM
  endo.mtl.18hr: 102.66
  endo.tlps.18hr: 134.14
  endo.tta.18hr: 146.36
  endo.ttl.18hr: 142.63
[1]; iPSC-EC, 10.00 µM
  endo.mtl.18hr: 114.95
  endo.tlps.18hr: 133.39
  endo.tta.18hr: 144.91
  endo.ttl.18hr: 148.25
[1]; iPSC-EC, 100.00 µM
  endo.mtl.18hr: 40.89
  endo.tlps.18hr: 14.11
  endo.tta.18hr: 1.36
  endo.ttl.18hr: 1.73
HUVECs; [2]
  huvec.mtl.18hr: 89.52
  huvec.tlps.18hr: 87.45
  huvec.tta.18hr: 86.96
  huvec.ttl.18hr: 85.21
HUVECs; [3]
  huvec.mtl.18hr: 105.15
  huvec.tlps.18hr: 104.95
  huvec.tta.18hr: 96.50
  huvec.ttl.18hr: 89.39
HUVECs; [5]
  huvec.mtl.18hr: 101.33
  huvec.tlps.18hr: 99.50
  huvec.tta.18hr: 114.69
  huvec.ttl.18hr: 103.47
HUVECs; [6]
  huvec.mtl.18hr: 94.11
  huvec.tlps.18hr: 92.84
  huvec.tta.18hr: 112.35
  huvec.ttl.18hr: 101.40
HUVECs; [4]
  huvec.mtl.18hr: 75.12
  huvec.tlps.18hr: 53.61
  huvec.tta.18hr: 117.52
  huvec.ttl.18hr: 95.13
